The record followed here is patent publication EP4624497A1, “PHOSPHOEN[…] PROBE, PREPARATION METHOD THEREFOR AND APPLICATION THEREOF” (priority 2022, dated 2024).

What all share (test): phosphoenolpyruvate titration of purified optical probe (fluorescence ratio)
What all share (format): binding
What all share (settings): phosphoenolpyruvate 0 to 10 mM, purified probe treated 10 minutes, ex 420/485 nm, em 528 nm

Assay [1] deals with T1, Thermus thermophilus TtPFK optical probe 254/255-TtPFK-I253K/Q254L/R255L/G256F-cpYFP-Y1S, SEQ ID NO: 12 (Thermus thermophilus, UniProt P21777, form not given/G256F/I253K/Q254L/R255L).
T1 construct: the numbering corresponds to the full length of the phosphoenolpyruvate-sensitive polypeptide; His-tag; made in house; host or cells: E. coli BL21 (DE3)
The method, then: (§1) • 1. The expression vectors (for example, a phosphoenolpyruvate optical probe expression vector based on pCDF.) were transformed into BL21 (DE3) cells, incubated inverted overnight, and the clones were picked from the plates into 250 mL Erlenmeyer flasks, placed in a shaker at 37 °C and incubated at 220 rpm to OD=0.4-0.8, then 1/1000 (V/V) of IPTG (1 M) was added to induce expression at 18 °C for 24-36 hours. • 2. Upon completion of inducible expression, cells were harvested by centrifugation at 4000 rpm for 30 min, resuspended in 50 mM phosphate buffer and disrupted ultrasonically until the broth were clear, centrifuged at 9600 rpm at 4 °C for 20 min. • 3. The centrifuged supernatant was used to obtain protein by purification through a self-packed nickel column affinity chromatography column, and the protein obtained after nickel column affinity chromatography was further used to obtain protein dissolved in 100 mM HEPES buffer (pH 7.4). • 4. After purified proteins were subjected to SDS-PAGE, probes were diluted to a protein solution having a final concentration of 0.2-5 µM using assay buffer (100 mm HEPES, 100 mM NaCl, pH 7.4). Phosphoenolpyruvate was formulated as a stock solution at a final concentration of 50 mM with the assay buffer (100 mM HEPES, 100 mM NaCl, pH 7.4). • 5. 100 µl 1 µM of protein solution was taken, incubated at 37 °C for 10 min, phosphoenolpyruvate was added for titration, and the fluorescence intensity of 528 nm emission after 420 nm and 485 nm fluorescence excitation of the protein was measured. The fluorescence excitation and emission determination of the samples were done using a multifunctional fluorescence microplate reader. • 6. 100 µl 1 µM of protein solution was taken, incubated at 37 °C for 10 min, and phosphoenolpyruvate was added to determine the absorption and fluorescence spectra of the proteins. Determination of the absorption and fluorescence spectra of the samples was done by spectrophotometer and spectrofluorometer.
(§2) The recombinant plasmids of the mutation library were transformed into BL21 (DE3) to induce expression, and the purified probe protein was subjected to phosphoenolpyruvate-responsive screening, dividing the detection signal of the fusion fluorescent protein containing 2 mM phosphoenolpyruvate by that of the fusion fluorescent protein without phosphoenolpyruvate. […]

Assay [2] deals with T2, Thermus thermophilus TtPFK optical probe 254/255-TtPFK-cpYFP variant, TtPFK I253F/Q254L/R255L/G256F, cpYFP Y1G/N246F (Thermus thermophilus, UniProt P21777, form not given/G256F/I253F/Q254L/R255L).
T2 construct: the numbering corresponds to the full length of the phosphoenolpyruvate-sensitive polypeptide; His-tag; made in house; host or cells: E. coli BL21 (DE3)
The method, then:
as §1, §2

For assay [3], the target named is T3, Thermus thermophilus TtPFK optical probe 254/255-TtPFK-cpYFP variant, TtPFK I253V/Q254A/R255F/G256Y, cpYFP N246F (Thermus thermophilus, UniProt P21777, form not given/G256Y/I253V/Q254A/R255F).
T3 construct: the numbering corresponds to the full length of the phosphoenolpyruvate-sensitive polypeptide; His-tag; made in house; host or cells: E. coli BL21 (DE3)
How it is done: as §1, §2

Assay [4] addresses T4, Thermus thermophilus TtPFK optical probe 254/255-TtPFK-cpYFP variant, TtPFK I253V/Q254L/R255F/G256Y, cpYFP Y1H/N246F (Thermus thermophilus, UniProt P21777, form not given/G256Y/I253V/Q254L/R255F).
T4 construct: His-tag; made in house; host or cells: E. coli BL21 (DE3)
The method, then:
as §1, §2

Assay [5] concerns the target T5, Thermus thermophilus TtPFK optical probe 254/255-TtPFK-cpYFP variant, TtPFK I253V/Q254L/R255L/G256H, cpYFP Y1S (Thermus thermophilus, UniProt P21777, form not given/G256H/I253V/Q254L/R255L).
T5 construct: the numbering corresponds to the full length of the phosphoenolpyruvate-sensitive polypeptide; His-tag; made in house; host or cells: E. coli BL21 (DE3)
The method, then: as §1, §2

For assay [6], the target named is T6, Thermus thermophilus TtPFK optical probe 254/255-TtPFK-cpYFP variant, TtPFK I253Y/Q254I (Thermus thermophilus, UniProt P21777, form not given/I253Y/Q254I/Q254N).
T6 construct: the numbering corresponds to the full length of the phosphoenolpyruvate-sensitive polypeptide; His-tag; made in house; host or cells: E. coli BL21 (DE3)
How it is done: as §1, §2

For assay [7], the target named is T7, Thermus thermophilus TtPFK optical probe 254/255-TtPFK-cpYFP variant, TtPFK Q254L/R255L/G256H, cpYFP Y1S (Thermus thermophilus, UniProt P21777, form not given/G256H/Q254L/R255L).
T7 construct: the numbering corresponds to the full length of the phosphoenolpyruvate-sensitive polypeptide; His-tag; made in house; host or cells: E. coli BL21 (DE3)
The method, then: as §1, §2

Assay [8] has as its target T8, Thermus thermophilus TtPFK optical probe 254/255-TtPFK-cpYFP variant, TtPFK Q254V/R255I/G256H, cpYFP N246W (Thermus thermophilus, UniProt P21777, form not given/G256H/Q254V/R255I).
T8 construct: the numbering corresponds to the full length of the phosphoenolpyruvate-sensitive polypeptide; His-tag; made in house; host or cells: E. coli BL21 (DE3)
The method, then: as §1, §2

Assay [9] deals with T9, Thermus thermophilus TtPFK optical probe 254/256-TtPFK-I253Q/Q254L/G256V/G257L-cpYFP-Y1T/N246F (Thermus thermophilus, UniProt P21777, form not given/G256V/G257L/I253Q/Q254L).
T9 construct: the numbering corresponds to the full length of the phosphoenolpyruvate-sensitive polypeptide; His-tag; made in house; host or cells: E. coli BL21 (DE3)
The method, then: as §1, §2

Assay [10] has as its target T10, Thermus thermophilus TtPFK optical probe 254/256-TtPFK-cpYFP variant, TtPFK I253D/Q254L/G256V/G257L, cpYFP Y1T/N246F (Thermus thermophilus, UniProt P21777, form not given/G256V/G257L/I253D/Q254L).
T10 construct: the numbering corresponds to the full length of the phosphoenolpyruvate-sensitive polypeptide; His-tag; made in house; host or cells: E. coli BL21 (DE3)
How it is done: as §1, §2

The target of assay [11] is T11, Thermus thermophilus TtPFK optical probe 254/256-TtPFK-cpYFP variant, TtPFK I253S/Q254L/G256V/G257L, cpYFP Y1T/N246F (Thermus thermophilus, UniProt P21777, form not given/G256V/G257L/I253S/Q254L).
T11 construct: the numbering corresponds to the full length of the phosphoenolpyruvate-sensitive polypeptide; His-tag; made in house; host or cells: E. coli BL21 (DE3)
How it is done: as §1, §2

Assay [12] has as its target T12, Thermus thermophilus phosphofructokinase TtPFK (SEQ ID NO: 1) optical probe 254/255-TtPFK-cpYFP, no mutation, SEQ ID NO: 10 (Thermus thermophilus, UniProt P21777).
T12 construct: His-tag; made in house; host or cells: E. coli BL21 (DE3)
How it is done:
as §1, §2

For assay [13], the target named is T13, Thermus thermophilus phosphofructokinase TtPFK (SEQ ID NO: 1) optical probe 254/256-TtPFK-cpYFP, no mutation (Thermus thermophilus, UniProt P21777, form not given/R255N).
T13 construct: the numbering corresponds to the full length of the phosphoenolpyruvate-sensitive polypeptide; His-tag; made in house; host or cells: E. coli BL21 (DE3)
How it is done:
as §1, §2

In the case of `C=C(OP(=O)(O)O)C(=O)O` [phosphoenolpyruvate, Phosphoenolpyruvate], the Kd was found to be 17.5 µM in assay [1]; 5.56 µM in assay [2]; 32 µM in assay [3]; 81.7 µM in assay [4]; 5.64 µM in [5]; 1.55 µM in assay [6]. In addition, the Kd is 8.5 µM in [7]; 11.4 µM in assay [8]; 13.1 µM in assay [9]; 13.4 µM in assay [10]; 8.93 µM in assay [11]; 0.8 µM in [12]. For the same compound, in assay [13], the Kd worked out at 2.15 µM.
